Earlier results, collected in patent publication US20060153823A1, “Compositions and methods for nutritional supplementation” (Everett Laboratories, Inc., priority 2005, published 2006).

Key:
[1] = tested on: patients with hypertension
[2] = tested on: patients with cardiomyopathy
[3] = tested on: patients with ischemic heart disease
[4] = tested on: patients with congestive heart failure

| SMILES | blood pressure [1] | cardiac function including ejection fraction and cardiac output [2] | magnitude and rate of clinical improvement [3] | blood pressure [4] | myocardial metabolic function [4] | myocardial thickness [4] | levels and functioning of nitric oxide (NO) (nitric oxide (NO)) |
| --- | --- | --- | --- | --- | --- | --- | --- |
| COC1=C(OC)C(=O)C(C/C=C(\C)CC/C=C(\C)CC/C=C(\C)CC/C=C(\C)CC/C=C(\C)CC/C=C(\C)CC/C=C(\C)CC/C=C(\C)CC/C=C(\C)CCC=C(C)C)=C(C)C1=O [CoQ10, coenzyme Q10] | significantly reduce blood pressure | significant improvement in cardiac function | enhances both the magnitude and rate of clinical improvement | reduce blood pressure | improve myocardial metabolic function | reduce myocardial thickness | – |
| Nc1nc2ncc(CNc3ccc(C(=O)N[C@@H](CCC(=O)O)C(=O)O)cc3)nc2c(=O)[nH]1 [folic acid] | – | – | – | – | – | – | improves the levels and functioning |
